This passage reports inhibition and IC50 results from ChEMBL document CHEMBL4613219, “Formation of 5α-dihydrotestosterone from 5α-androstane-3α,17β-diol in prostate cancer LAPC-4 cells - Identifying inhibitors of non-classical pathways producing the most potent androgen” (Bioorg Med Chem Lett, 2020).

Holding throughout (details): LAPC4, 24 h
Assay [1] relates to LAPC4. The assay is described as follows: Inhibition of 3-alpha-diol conversion to 5-alpha-dihydrotestosterone in human LAPC4 cells assessed in 200000 cells at 10 uM measured after 24 hrs using [14C]-3-alpha-diol/[14C]-3-beta-diol (9:1) as non-radiolabeled/radiolabeled 20:1 mixture by TLC analysis relative to control. The class given is functional.
The test system of assay [2] is LAPC4. Nature of the assay: Inhibition of 3-alpha-diol conversion to 5-alpha-dihydrotestosterone in human LAPC4 cells assessed in 200000 cells at 3 uM measured after 24 hrs using [14C]-3-alpha-diol/[14C]-3-beta-diol (9:1) as non-radiolabeled/radiolabeled 20:1 mixture by TLC analysis relative to control. Format: functional.
In assay [3] the test system is LAPC4. Nature of the assay: Inhibition of 3-alpha-diol conversion to 5-alpha-dihydrotestosterone in human LAPC4 cells assessed in 100000 cells at 3 uM measured after 24 hrs using [14C]-3-alpha-diol/[14C]-3-beta-diol (9:1) as non-radiolabeled/radiolabeled 20:1 mixture by TLC analysis relative to control. The class given is functional.
Assay [4] has as its system LAPC4. Nature of the assay: Inhibition of 3-alpha-diol conversion to 5-alpha-dihydrotestosterone in human LAPC4 cells assessed in 100000 cells at 10 uM measured after 24 hrs using [14C]-3-alpha-diol/[14C]-3-beta-diol (9:1) as non-radiolabeled/radiolabeled 20:1 mixture by TLC analysis relative to control. Format: functional.
Assay [5] has as its system LAPC4. The assay is described as follows: Inhibition of 3-alpha-diol conversion to 5-alpha-dihydrotestosterone in human LAPC4 cells assessed in 200000 cells measured after 24 hrs using [14C]-3-alpha-diol/[14C]-3-beta-diol (9:1) as non-radiolabeled/radiolabeled 20:1 mixture by TLC analysis. The class given is functional, cell-based.

On to `C[C@]12CC[C@@H](O)C[C@@H]1CC[C@@H]1[C@@H]2CC[C@]2(C)C(=O)CC[C@@H]12` [ANDROSTERONE], for which, in the assay with LAPC4 [1], the inhibition at 10 µM came out at 83.8%. Further, in the assay on LAPC4 [2], the inhibition at 3 µM amounted to 85.7%.

As to `CN(C)S(=O)(=O)c1ccc(NC(=S)N2CCN(C[C@@]3(O)CC[C@@]4(C)[C@@H](CC[C@@H]5[C@@H]4CC[C@]4(C)C(=O)CC[C@@H]54)C3)CC2)cc1`, the inhibition at 3 µM in the assay on LAPC4 [3] amounted to 14.3%. Further, in the assay with LAPC4 [4], the inhibition at 10 µM was determined as 31.7%.

On to `C[C@]12CCC(O)C[C@@H]1CC[C@@H]1[C@@H]2CC[C@]2(C)[C@@H](O)CC[C@@H]12` (stereo not given in full), for which, in the assay with LAPC4 [5], the IC50 was 0.56 µM. The inhibition at 10 µM turned out to be 87% in the assay on LAPC4 [1] and 79.3% in the assay on LAPC4 [4]. For the same compound, the inhibition at 3 µM was 46.9% in the assay with LAPC4 [3] and 73.6% in the assay on LAPC4 [2].

`COc1cccc(CN2CCN(C[C@@]3(O)CC[C@@]4(C)[C@@H](CC[C@@H]5[C@@H]4CC[C@@]4(C)[C@H]5CC[C@]4(C)O)C3)CC2)c1`: the inhibition at 3 µM in the assay with LAPC4 [3] was determined as 17.8%. In the assay on LAPC4 [4], the inhibition at 10 µM came to 36.5%.

With `C[C@]12CC[C@](O)(CN3CCN(Cc4ccc5ccccc5c4)CC3)C[C@@H]1CC[C@@H]1[C@@H]2CC[C@]2(C)C(=O)CC[C@@H]12`, in the assay on LAPC4 [1], the inhibition at 10 µM turned out to be 51.4%. For the same compound, the inhibition at 3 µM in the assay with LAPC4 [2] was determined as 30.1%.

With `COc1cccc(CN2CCN(C[C@@]3(O)CC[C@@]4(C)[C@@H](CC[C@@H]5[C@@H]4CC[C@@]4(C)[C@H]5CCC4(F)F)C3)CC2)c1`, in the assay on LAPC4 [3], the inhibition at 3 µM was 33.7%. Also, the inhibition at 10 µM with LAPC4 [4] amounted to 49.7%.

Regarding `COc1cccc(CN2CCN(C[C@@]3(O)CC[C@@]4(C)[C@@H](CC[C@@H]5[C@@H]4CC[C@]4(C)[C@@H](O)CC[C@@H]54)C3)CC2)c1`, the inhibition at 3 µM with LAPC4 [3] came to 21.2%. In addition, in the assay on LAPC4 [4], the inhibition at 10 µM was found to be 28.3%.

As for `C[C@]12CC[C@](O)(CN3CCN(C(=S)Nc4ccc5ccccc5c4)CC3)C[C@@H]1CC[C@@H]1[C@@H]2CC[C@]2(C)C(=O)CC[C@@H]12`, the inhibition at 10 µM in the assay on LAPC4 [1] stood at 42.1%. Besides, in the assay with LAPC4 [2], the inhibition at 3 µM turned out to be 41.1%.

Take `COc1ccc(C(F)(F)F)c(N2CCN(C[C@@]3(O)CC[C@@]4(C)[C@@H](CC[C@@H]5[C@@H]4CC[C@]4(C)C(=O)CC[C@@H]54)C3)CC2)c1`: the inhibition at 10 µM in the assay on LAPC4 [1] turned out to be 48%. In the assay on LAPC4 [2], the inhibition at 3 µM came out at 27.6%.

On to `C[C@]12CC[C@](O)(CN3CCN(Cc4ccc5ccccc5n4)CC3)C[C@@H]1CC[C@@H]1[C@@H]2CC[C@]2(C)C(=O)CC[C@@H]12`, for which the inhibition at 3 µM with LAPC4 [3] worked out at 8.4%. For the same compound, the inhibition at 10 µM in the assay with LAPC4 [4] came out at 27.4%.

For the compound `C[C@]12CC[C@](O)(CN3CCN(C(=O)c4ccc5ccccc5c4)CC3)C[C@@H]1CC[C@@H]1[C@@H]2CC[C@]2(C)C(=O)CC[C@@H]12`, the IC50 in the assay on LAPC4 [5] turned out to be 6.1 µM. In addition, the inhibition at 10 µM with LAPC4 [1] was determined as 65.3%. The inhibition at 3 µM with LAPC4 [2] came to 43.6%.

On to `COc1cc(N2CCN(C[C@@]3(O)CC[C@@]4(C)[C@@H](CC[C@@H]5[C@@H]4CC[C@]4(C)C(=O)CC[C@@H]54)C3)CC2)ccc1F`, for which the inhibition at 10 µM in the assay on LAPC4 [1] is 37.2%. The inhibition at 3 µM in the assay on LAPC4 [2] is 21.4%.

On to `C#C[C@]1(O)CC[C@H]2[C@@H]3CC[C@H]4C[C@@](O)(CN5CCN(Cc6cccc(OC)c6C(F)(F)F)CC5)CC[C@]4(C)[C@H]3CC[C@@]21C`, for which, in the assay with LAPC4 [5], the IC50 came out at 14.1 µM. For the same compound, in the assay with LAPC4 [1], the inhibition at 10 µM is 56.2%. In the assay on LAPC4 [2], the inhibition at 3 µM stood at 44.3%.

On to `C#C[C@]1(O)CC[C@H]2[C@@H]3CC[C@H]4C[C@@](O)(CN5CCN(Cc6cccc(OC)c6)CC5)CC[C@]4(C)[C@H]3CC[C@@]21C`, for which the inhibition at 3 µM in the assay with LAPC4 [3] is 35.4%. Further, the inhibition at 10 µM in the assay on LAPC4 [4] is 44.2%.

As for `COc1cc(C)ccc1CN1CCN(C[C@@]2(O)CC[C@@]3(C)[C@@H](CC[C@@H]4[C@@H]3CC[C@]3(C)C(=O)CC[C@@H]43)C2)CC1`, in the assay on LAPC4 [3], the inhibition at 3 µM was 12.2%. Further, the inhibition at 10 µM with LAPC4 [4] was 51.2%.

Consider `COc1cccc(CN2CCN(C[C@@]3(O)CC[C@@]4(C)[C@@H](CC[C@@H]5[C@@H]4CC[C@]4(C)C(=O)CC[C@@H]54)C3)CC2)c1`, for which, in the assay on LAPC4 [3], the inhibition at 3 µM turned out to be 21.5%. Further, in the assay on LAPC4 [4], the inhibition at 10 µM was 42.5%.

As for `C#C[C@]1(O)CC[C@H]2[C@@H]3CC[C@H]4C[C@@](O)(CN5CCN(Cc6ccc(C(F)(F)F)c(OC)c6)CC5)CC[C@]4(C)[C@H]3CC[C@@]21C`, in the assay with LAPC4 [5], the IC50 stood at 1.2 µM. For the same compound, the inhibition at 10 µM in the assay on LAPC4 [1] came out at 88.8%. The inhibition at 3 µM in the assay on LAPC4 [2] stood at 74%.

With `COc1cc(CN2CCN(C[C@@]3(O)CC[C@@]4(C)[C@@H](CC[C@@H]5[C@@H]4CC[C@]4(C)C(=O)CC[C@@H]54)C3)CC2)cc(C(F)(F)F)c1`, the IC50 with LAPC4 [5] amounted to 3.7 µM. For the same compound, in the assay on LAPC4 [1], the inhibition at 10 µM worked out at 62.9%. The inhibition at 3 µM with LAPC4 [2] is 46.8%.

In the case of `CC(=O)c1cccc(CN2CCN(C[C@@]3(O)CC[C@@]4(C)[C@@H](CC[C@@H]5[C@@H]4CC[C@]4(C)C(=O)CC[C@@H]54)C3)CC2)c1`, in the assay with LAPC4 [3], the inhibition at 3 µM came to 3.7%. For the same compound, the inhibition at 10 µM with LAPC4 [4] was 15.5%.

For `COc1cc(N2CCN(C[C@@]3(O)CC[C@@]4(C)[C@@H](CC[C@@H]5[C@@H]4CC[C@]4(C)C(=O)CC[C@@H]54)C3)CC2)ccc1C(F)(F)F`, the values for the inhibition at 10 µM with LAPC4 [1] and with LAPC4 [4] were 63.2% and 55.6%, respectively. Besides, the inhibition at 3 µM with LAPC4 [3] stood at 33.7%; in the assay with LAPC4 [2], 37.4%.

With `C[C@]12CC[C@](O)(CN3CCN(S(=O)(=O)c4ccc5ccccc5c4)CC3)C[C@@H]1CC[C@@H]1[C@@H]2CC[C@]2(C)C(=O)CC[C@@H]12`, the inhibition at 10 µM in the assay on LAPC4 [1] was determined as 19.1%. Moreover, the inhibition at 3 µM with LAPC4 [2] worked out at 0.1%.

`COc1cccc(CN2CCN(C[C@@]3(O)CC[C@@]4(C)[C@@H](CC[C@@H]5[C@@H]4CC[C@]4(C)[C@H](O)CC[C@@H]54)C3)CC2)c1`: the inhibition at 3 µM in the assay on LAPC4 [3] was 9.5%. In the assay with LAPC4 [4], the inhibition at 10 µM is 27.6%.

For the compound `C[C@]12CC[C@](O)(CN3CCN(C(=S)NCc4cccc(C(F)(F)F)c4)CC3)C[C@@H]1CC[C@@H]1[C@@H]2CC[C@]2(C)C(=O)CC[C@@H]12`, the IC50 in the assay with LAPC4 [5] was determined as 3.6 µM. Further, the inhibition at 10 µM in the assay with LAPC4 [1] was determined as 57.7%; in the assay with LAPC4 [4] it was 49.7%. The inhibition at 3 µM with LAPC4 [3] worked out at 27%; in the assay on LAPC4 [2], 47.7%.

In the case of `CCN(C)S(=O)(=O)N1CCN(C[C@@]2(O)CC[C@@]3(C)[C@@H](CC[C@@H]4[C@@H]3CC[C@]3(C)C(=O)CC[C@@H]43)C2)CC1`, the inhibition at 3 µM with LAPC4 [3] came out at 0%. Also, the inhibition at 10 µM with LAPC4 [4] turned out to be 3.3%.

In the case of `COc1cc(CN2CCN(C[C@@]3(O)CC[C@@]4(C)[C@@H](CC[C@@H]5[C@@H]4CC[C@]4(C)C(=O)CC[C@@H]54)C3)CC2)ccc1C`, the inhibition at 3 µM in the assay on LAPC4 [3] came out at 22.3%. Also, the inhibition at 10 µM in the assay on LAPC4 [4] is 49%.

In the case of `COc1cc(CN2CCN(C[C@@]3(O)CC[C@@]4(C)[C@@H](CC[C@@H]5[C@@H]4CC[C@]4(C)C(=O)CC[C@@H]54)C3)CC2)ccc1C(F)(F)F`, the IC50 in the assay on LAPC4 [5] is 8 µM.

Consider `COc1cccc(CN2CCN(C[C@@]3(O)CC[C@@]4(C)[C@@H](CC[C@@H]5[C@@H]4CC[C@]4(C)C(=O)C(C)(C)C[C@@H]54)C3)CC2)c1`, for which the inhibition at 3 µM in the assay with LAPC4 [3] was 11.8%. The inhibition at 10 µM with LAPC4 [4] came out at 21.5%.

The inhibition is the share of the control response that was lost under treatment. For orientation: IC50 means the concentration that gives 50% inhibition.
